Laboratory results: BindingDB's records for doi:10.1016/j.ejmech.2014.09.084 (University of Florence, 2014)
pIC50: −log10 of the molar value.

Tests used:
[1] = Modulatory activity at P-gp assessed as doxorubicin IC50 in human K562 cells at 3 uM after 72 hrs by MTT assay (Rvb doxorubicin alone IC50 = 0.023 +/- 0.004 uM)
[2] = Modulatory activity at P-gp assessed as doxorubicin IC50 in human K562/DOX cells at 3 uM after 72 hrs by MTT assay (Rvb doxorubicin alone IC50 = 2.00 +/- 0.24 uM)
[3] = Modulatory activity at P-gp assessed as doxorubicin IC50 in human K562 cells at 0.1 uM after 72 hrs by MTT assay (Rvb doxorubicin alone IC50 = 0.023 +/- 0.004 uM)
[4] = Modulatory activity at P-gp assessed as doxorubicin IC50 in human K562/DOX cells at 1 uM after 72 hrs by MTT assay (Rvb doxorubicin alone IC50 = 2.00 +/- 0.24 uM)
[5] = Modulatory activity at P-gp assessed as doxorubicin IC50 in human K562/DOX cells at 0.1 uM after 72 hrs by MTT assay (Rvb doxorubicin alone IC50 = 2.00 +/- 0.24 uM)
[6] = Modulatory activity at P-gp assessed as doxorubicin IC50 in human K562 cells at 1 uM after 72 hrs by MTT assay (Rvb doxorubicin alone IC50 = 0.023 +/- 0.004 uM)

| pIC50 [1] | pIC50 [2] | pIC50 [3] | pIC50 [4] | pIC50 [5] | pIC50 [6] | SMILES |
| --- | --- | --- | --- | --- | --- | --- |
| 7.74 | 7.46 | 7.52 | 7.22 | 6.52 | – | COc1cc(/C=C/C(=O)OCCCCCN(C)CCCOC(=O)c2c3ccccc3cc3ccccc23)cc(OC)c1OC |
| 7.72 | 7.20 | 7.66 | 6.64 | 6.08 | 7.39 | COc1cc(/C=C/C(=O)OCCCCN(C)CCCCOC(=O)c2c3ccccc3cc3ccccc23)cc(OC)c1OC |
| 7.29 | 6.77 | 7.96 | 6.49 | 6.21 | 7.92 | COc1cc(/C=C/C(=O)OCCCN(C)CCCCCOC(=O)c2c3ccccc3cc3ccccc23)cc(OC)c1OC |
